Laboratory results as given in patent US8940771B2, “Organic compounds” (Novartis AG, priority 2007, dated 2015).

What was measured:
Format in all cases: biochemical
[1] = target: PI3Kα (p85iSH2(461-568)-p110α(21-1068)-His, BV1075) (Homo sapiens (Human), UniProt P42336); assay: PI3K KinaseGlo assay, PI3Kalpha; settings: for IC50: KinaseGlo, 1 μM ATP; for Selectivity PI3Kalpha vs. PI3Kdelta: ratio of PI3Kdelta IC50 to PI3Kalpha IC50
[2] = target: PI3Kδ (p85iSH2(461-568)-p110δ(2-1044)-His, BV1060) (Homo sapiens (Human), UniProt O00329); assay: PI3K KinaseGlo assay, PI3Kdelta; settings: 1 μM ATP, alpha vs. delta selectivity table
Chain of PI3Kδ (p85iSH2(461-568)-p110δ(2-1044)-His, BV1060) (O00329 other isoform, or with tags, fused parts or gaps): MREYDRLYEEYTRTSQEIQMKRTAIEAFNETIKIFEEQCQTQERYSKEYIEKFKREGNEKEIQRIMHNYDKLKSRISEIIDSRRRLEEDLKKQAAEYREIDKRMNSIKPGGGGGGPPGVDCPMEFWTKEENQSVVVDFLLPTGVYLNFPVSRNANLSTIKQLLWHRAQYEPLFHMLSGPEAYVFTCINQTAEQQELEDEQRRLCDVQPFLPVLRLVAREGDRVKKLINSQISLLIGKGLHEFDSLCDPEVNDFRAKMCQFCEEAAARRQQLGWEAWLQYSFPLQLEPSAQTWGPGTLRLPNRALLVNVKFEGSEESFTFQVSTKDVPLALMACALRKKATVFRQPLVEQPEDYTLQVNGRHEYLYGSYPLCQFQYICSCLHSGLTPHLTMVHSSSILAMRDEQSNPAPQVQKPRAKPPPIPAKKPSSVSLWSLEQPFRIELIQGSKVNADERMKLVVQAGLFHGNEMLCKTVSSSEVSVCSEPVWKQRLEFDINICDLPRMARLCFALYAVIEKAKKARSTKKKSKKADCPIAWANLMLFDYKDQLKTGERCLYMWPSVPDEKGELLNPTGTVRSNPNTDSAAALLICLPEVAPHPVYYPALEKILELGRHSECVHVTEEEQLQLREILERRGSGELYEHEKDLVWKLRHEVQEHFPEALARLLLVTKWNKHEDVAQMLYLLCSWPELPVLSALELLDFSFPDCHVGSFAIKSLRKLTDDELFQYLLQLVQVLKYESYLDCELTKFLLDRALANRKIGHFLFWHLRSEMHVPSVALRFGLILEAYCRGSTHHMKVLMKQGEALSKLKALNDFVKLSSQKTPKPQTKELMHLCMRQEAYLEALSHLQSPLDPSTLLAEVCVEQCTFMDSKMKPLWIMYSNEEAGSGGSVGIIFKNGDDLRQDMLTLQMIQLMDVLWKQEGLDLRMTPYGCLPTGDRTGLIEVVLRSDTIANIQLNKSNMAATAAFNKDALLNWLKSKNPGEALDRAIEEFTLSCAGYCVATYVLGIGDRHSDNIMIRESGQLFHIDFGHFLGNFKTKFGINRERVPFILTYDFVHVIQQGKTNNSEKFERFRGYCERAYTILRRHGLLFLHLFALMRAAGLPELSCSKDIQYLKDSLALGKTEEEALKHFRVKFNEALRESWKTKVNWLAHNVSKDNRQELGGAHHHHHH

[3] = target: PI3Kγ (p110γ(Δ143-[Met144-1102])-His, BV950) (Homo sapiens (Human), UniProt P48736); assay: PI3K KinaseGlo assay, PI3Kgamma; settings: 1 μM ATP, four-isoform table
Chain of PI3Kγ (p110γ(Δ143-[Met144-1102])-His, BV950) (P48736 other isoform, or with tags, fused parts or gaps): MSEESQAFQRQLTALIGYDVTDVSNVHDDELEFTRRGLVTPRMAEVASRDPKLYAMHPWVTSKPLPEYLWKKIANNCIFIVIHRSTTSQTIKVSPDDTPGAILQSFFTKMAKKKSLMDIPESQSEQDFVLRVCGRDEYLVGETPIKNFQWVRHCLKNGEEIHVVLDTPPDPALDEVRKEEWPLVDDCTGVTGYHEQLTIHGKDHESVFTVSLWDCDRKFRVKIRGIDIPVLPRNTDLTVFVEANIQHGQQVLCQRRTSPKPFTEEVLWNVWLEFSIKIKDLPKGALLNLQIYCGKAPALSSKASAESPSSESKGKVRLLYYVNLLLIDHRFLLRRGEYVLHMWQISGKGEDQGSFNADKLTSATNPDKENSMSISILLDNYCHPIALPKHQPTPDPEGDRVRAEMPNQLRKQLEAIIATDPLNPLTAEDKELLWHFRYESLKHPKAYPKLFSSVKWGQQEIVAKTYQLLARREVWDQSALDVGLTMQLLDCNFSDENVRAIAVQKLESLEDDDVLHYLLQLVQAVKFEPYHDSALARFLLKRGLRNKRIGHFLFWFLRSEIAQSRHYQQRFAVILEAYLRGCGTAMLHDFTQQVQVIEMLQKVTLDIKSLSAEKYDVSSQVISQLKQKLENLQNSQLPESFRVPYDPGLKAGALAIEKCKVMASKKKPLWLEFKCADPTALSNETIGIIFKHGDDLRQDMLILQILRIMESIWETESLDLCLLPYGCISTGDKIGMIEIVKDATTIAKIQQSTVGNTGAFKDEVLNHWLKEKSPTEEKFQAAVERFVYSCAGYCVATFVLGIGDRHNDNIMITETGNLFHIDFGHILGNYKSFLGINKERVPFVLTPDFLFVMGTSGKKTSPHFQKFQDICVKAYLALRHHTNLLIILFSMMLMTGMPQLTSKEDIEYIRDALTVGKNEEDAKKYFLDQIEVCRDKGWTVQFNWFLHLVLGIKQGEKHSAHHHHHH

[4] = alpha vs. delta selectivity table

Chain of PI3Kα (p85iSH2(461-568)-p110α(21-1068)-His, BV1075) (P42336 other isoform, or with tags, fused parts or gaps): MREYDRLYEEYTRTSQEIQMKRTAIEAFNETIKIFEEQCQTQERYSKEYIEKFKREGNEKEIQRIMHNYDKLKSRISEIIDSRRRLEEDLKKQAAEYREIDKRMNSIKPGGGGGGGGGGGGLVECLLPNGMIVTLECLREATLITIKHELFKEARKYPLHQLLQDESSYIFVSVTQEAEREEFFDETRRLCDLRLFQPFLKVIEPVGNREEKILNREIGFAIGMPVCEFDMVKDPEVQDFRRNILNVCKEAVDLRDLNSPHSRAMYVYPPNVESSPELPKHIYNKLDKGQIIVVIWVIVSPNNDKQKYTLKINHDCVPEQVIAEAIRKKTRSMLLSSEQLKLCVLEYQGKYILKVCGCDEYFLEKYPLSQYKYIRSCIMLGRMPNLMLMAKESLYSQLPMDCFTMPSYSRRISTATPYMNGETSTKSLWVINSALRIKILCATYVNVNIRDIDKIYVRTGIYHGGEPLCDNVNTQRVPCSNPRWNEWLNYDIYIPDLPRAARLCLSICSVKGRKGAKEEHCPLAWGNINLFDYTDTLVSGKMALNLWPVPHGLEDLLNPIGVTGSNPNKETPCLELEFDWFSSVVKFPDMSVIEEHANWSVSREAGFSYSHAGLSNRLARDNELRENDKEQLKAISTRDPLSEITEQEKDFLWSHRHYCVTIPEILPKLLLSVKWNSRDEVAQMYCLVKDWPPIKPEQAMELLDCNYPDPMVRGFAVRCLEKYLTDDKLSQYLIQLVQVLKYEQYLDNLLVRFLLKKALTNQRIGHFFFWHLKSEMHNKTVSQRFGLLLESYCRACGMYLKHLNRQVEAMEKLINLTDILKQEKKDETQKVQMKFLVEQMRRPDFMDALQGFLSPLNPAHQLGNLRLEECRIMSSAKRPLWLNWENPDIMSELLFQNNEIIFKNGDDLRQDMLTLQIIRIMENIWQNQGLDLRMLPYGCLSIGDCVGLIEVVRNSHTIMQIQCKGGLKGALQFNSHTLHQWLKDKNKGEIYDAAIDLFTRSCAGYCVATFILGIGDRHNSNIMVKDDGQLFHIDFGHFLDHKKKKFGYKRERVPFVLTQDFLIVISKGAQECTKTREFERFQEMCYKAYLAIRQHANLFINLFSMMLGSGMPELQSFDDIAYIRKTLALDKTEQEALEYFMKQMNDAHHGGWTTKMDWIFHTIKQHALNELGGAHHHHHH

Row | IC50 [3] [nM] | SMILES | IC50 [1, 4] [nM] | Selectivity PI3Kalpha vs. PI3Kdelta [1] | IC50 [2] [nM] | IC50 ([1]; 10 nM enzyme, 30 mins) [nM]
1 |  | Cc1nc(NC(=O)N2C[C@H](N(C)C)C[C@H]2C(N)=O)sc1-c1ccnc(C(C)(C)C)n1 [Example 70, (2S,4R)-4-Dimethylamino-pyrrolidine-1,2-dicarboxylic acid 2-amide 1-{[5-(2-tert-butyl-pyrimidin-4-yl)-4-methyl-thiazol-2-yl]-amide}] | 14 | 246-fold | 3450 | 
2 |  | Cc1nc(NC(=O)N2C[C@@H](F)C[C@H]2C(N)=O)sc1-c1ccnc(C(C)(C)C)n1 [Example 66] | 40 | 32-fold | 1270 | 40
3 | 928 | Cc1nc(NC(=O)N2CCC[C@@]2(C)C(N)=O)sc1-c1csc(CC2CC2)n1 [Example 151, (S)-2-Methyl-pyrrolidine-1,2-dicarboxylic acid 2-amide 1-[(2-cyclopropylmethyl-4′-methyl-[4,5′]bithiazolyl-2′-yl)-amide]] |  |  |  | 
